The values that follow come from ChEMBL document CHEMBL3045701, “Comprehensive structureactivity relationship analysis of substituted 5-(biphenyl-4-ylmethyl) pyrazoles derivatives as AT1 selective angiotensin II receptor antagonists: 2D and kNNMFA QSAR approach” (Med Chem Res, 2013).

In this assay the target is T1, Angiotensin II receptor (AT-1) type-1 (Rattus norvegicus, UniProt P29089+P25095).
T1 sequence (P29089 whole entry): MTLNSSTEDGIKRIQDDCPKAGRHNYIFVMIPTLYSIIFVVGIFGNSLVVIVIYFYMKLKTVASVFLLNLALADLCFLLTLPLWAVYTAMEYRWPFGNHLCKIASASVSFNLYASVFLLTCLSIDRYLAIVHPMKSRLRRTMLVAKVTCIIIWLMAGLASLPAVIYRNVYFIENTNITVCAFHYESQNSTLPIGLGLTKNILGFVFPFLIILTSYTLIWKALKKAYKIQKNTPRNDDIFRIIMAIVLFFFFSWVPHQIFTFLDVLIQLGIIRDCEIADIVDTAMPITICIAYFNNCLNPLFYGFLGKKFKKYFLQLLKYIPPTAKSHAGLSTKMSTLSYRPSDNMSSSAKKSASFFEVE
T1 sequence (P25095 whole entry): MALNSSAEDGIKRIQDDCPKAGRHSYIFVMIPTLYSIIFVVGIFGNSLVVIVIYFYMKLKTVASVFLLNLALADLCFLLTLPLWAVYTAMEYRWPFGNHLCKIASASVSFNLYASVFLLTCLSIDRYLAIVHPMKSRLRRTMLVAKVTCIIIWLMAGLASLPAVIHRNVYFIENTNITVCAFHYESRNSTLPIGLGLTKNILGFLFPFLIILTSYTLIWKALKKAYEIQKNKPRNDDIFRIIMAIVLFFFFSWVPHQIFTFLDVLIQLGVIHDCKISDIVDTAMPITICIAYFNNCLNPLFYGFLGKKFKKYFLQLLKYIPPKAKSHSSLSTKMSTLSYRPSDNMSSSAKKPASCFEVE
Description: Antagonist activity at AT1 receptor in Rattus norvegicus (rat) liver.

`CCCCn1nc(C)c(C(=O)O)c1Cc1ccc(-c2ccccc2-c2nn[nH]n2)cc1` showed a pIC50 of 8.567.
For `CCCn1nc(C(C)C)c(C(=O)O)c1Cc1ccc(-c2ccccc2NS(=O)(=O)C(F)(F)F)cc1`, the IC50 is reported as 74 nM and the pIC50 is 7.13.
The corresponding values for `CCCCn1nc(C)c(C(=O)O)c1Cc1ccc(-c2ccccc2S(=O)(=O)Nc2ccccc2)cc1` are 12 nM and 7.92.
In the same order, the values of `CCCCOC(=O)NS(=O)(=O)c1ccccc1-c1ccc(Cc2c(C(=O)O)cnn2CCCC)cc1` are 13 nM and 7.522.
In the same order, the values of `CCCn1nc(C2CC2)c(C(=O)O)c1Cc1ccc(-c2ccccc2S(=O)(=O)Nc2ccccc2)cc1` are 18 nM and 7.744.
`CCCn1nc(C2CC2)c(C(N)=O)c1Cc1ccc(-c2ccccc2S(=O)(=O)Nc2ccccc2)cc1` displayed an IC50 of 7.4 nM and a pIC50 of 8.13.
Consider `CCCn1nc(C(C)C)c(C(=O)O)c1Cc1ccc(-c2ccccc2C(=O)O)cc1`, for which the IC50 stood at 130 nM and the pIC50 is on record as 6.886.
In the same order, the values of `CCCCc1nn(CCC)c(Cc2ccc(-c3ccccc3-c3nnn[nH]3)cc2)c1C(=O)O` are 3 nM and 8.522.
`Cc1nn(-c2ccccc2)c(Cc2ccc(-c3ccccc3-c3nn[nH]n3)cc2)c1C(=O)O` returned a pIC50 of 7.102.
